Where two headings read alike, the source gives them in different places.
Legend:
[1] = system: P. aeruginosa; assay: Ozone kill of P. aeruginosa test culture; assay type: cell-based; conditions: 3.2 ppm ozone, 1 minute
Protocol: (§1) Ozone is, of course, effective against enteric pathogens. For example, adding 3.2 ppm 03 to a test culture kills 1.95×10^6 cells/mL of E. coli in 1 minute and kills 1.5×10^6 cells/mL of P. aeruginosa in 1 minute.

[2] = Protocol: Ozone concentrations were measured by a chemical oxidation of indigo dye by using an indigo dye […] manufactured by HACH, Inc.
6.1 mg/L (6.1 ppm) of ozone was provided in deionized, distilled water over a 15 minute period. The solution was allowed to stand with stirring by a magnetic stirrer over a 24-hour period, taking periodic readings of the ozone concentration.

[3] = system: E. coli; assay: Ozone kill of E. coli test culture; assay type: cell-based; conditions: 3.2 ppm ozone, 1 minute
Protocol: as §1

[4] = system: Bacillus subtilis spores; assay: Bacillus subtilis spore survival by MALS, AODC and 24-hour CFU count; assay type: cell-based
Protocol: The efficacy of ozone in the absence of tetrasilver tetroxide was evaluated by challenging Bacillus subtilis spores with 2 ppm ozone and measuring the survival rate over time by MALS, acridine orange direct counts (AODC) and by counting colony forming units (CFU) at 24 hours.
Bacillus subtilus spore suspensions in water were challenged with 2 ppm tetrasilver tetroxide and […] ozone to evaluate the killing efficacy of the combination. The survival rate over time was measured by MALS, AODC and counting colony forming units at 24 hours.

[5] = system: E. coli K12; conditions: 10 ppm or less tetrasilver tetroxide, within 30 minutes, other studies; cited from earlier work
[6] = B. subtilis spores, 2 ppm ozone, treatment time 0
[7] = B. subtilis spores, 2 ppm ozone, treatment time 5
[8] = B. subtilis spores, 2 ppm ozone, treatment time 10
[9] = B. subtilis spores, 2 ppm ozone, treatment time 15
[10] = B. subtilis spores, 2 ppm ozone, treatment time 20
[11] = B. subtilis spores, 2 ppm ozone, treatment time 30

O=[O+][O-] [ozone]
cells killed [1]: 1.5×10^6 cells/mL | ozone at 18 hours relative to that expected in the absence of tetrasilver tetroxide ([2]; 2 ppm tetrasilver tetroxide added, 18 hours): approximately an order of magnitude higher | ozone concentration ([2]; 2 ppm tetrasilver tetroxide added, after 18 hours): 0.12 ppm | ozone oxidizing activity ([2]; 2 ppm tetrasilver tetroxide added, by 24 hours): 0.03 ppm | half-life of ozone ([2]; 6.1 ppm ozone initially in deionized, distilled water, no tetrasilver tetroxide): approximately 2 hours | ozone concentration ([2]; 6.1 ppm ozone initially in deionized, distilled water, stirred, by 2 hours): 3 ppm | ozone concentration ([2]; 6.1 ppm ozone initially in deionized, distilled water, stirred, by 18 hours): 0.01 ppm | cells killed [3]: 1.95×10^6 cells/mL | MALS log intensity vs time of exposure (FIG. 1) ([4]; B. subtilis spores, 2 ppm ozone, increasing time of exposure): reduction in the log intensity | 24-Hour Count [4, 6]: 2.10 × 10^6 cfu/mL | 24-Hour Count % AODC [4, 6]: 100 % AODC | 24-Hour Count % control [4, 6]: 100 % control | AODC [4, 6]: 2.34 × 10^6 spores/mL | AODC % control [4, 6]: 100 % control | MALS % control [4, 6]: 100 % control | MALS intensity [4, 6]: 2436.6 | 24-Hour Count [4, 7]: 1.23 × 10^6 cfu/mL | 24-Hour Count % AODC [4, 7]: 76.9 % AODC | 24-Hour Count % control [4, 7]: 58.5 % control | AODC [4, 7]: 1.6 × 10^6 spores/mL | AODC % control [4, 7]: 68.3 % control | MALS % control [4, 7]: 65.33 % control | MALS intensity [4, 7]: 1591.92 | 24-Hour Count [4, 8]: 1.68 × 10^5 cfu/mL | 24-Hour Count % AODC [4, 8]: 14.5 % AODC | 24-Hour Count % control [4, 8]: 8.0 % control | AODC [4, 8]: 1.16 × 10^6 spores/mL | AODC % control [4, 8]: 49.5 % control | MALS % control [4, 8]: 51.89 % control | MALS intensity [4, 8]: 1264.26 | 24-Hour Count [4, 9]: 1.80 × 10^3 cfu/mL | 24-Hour Count % AODC [4, 9]: 0.14 % AODC | 24-Hour Count % control [4, 9]: 0.09 % control | AODC [4, 9]: 1.29 × 10^6 spores/mL | AODC % control [4, 9]: 55.1 % control | MALS % control [4, 9]: 42.67 % control | MALS intensity [4, 9]: 1039.64 | 24-Hour Count [4, 10]: 1.82 × 10^2 cfu/mL | 24-Hour Count % AODC [4, 10]: 0.04 % AODC | 24-Hour Count % control [4, 10]: 0.009 % control | AODC [4, 10]: 4.87 × 10^5 spores/mL | AODC % control [4, 10]: 20.8 % control | MALS % control [4, 10]: 34.94 % control | MALS intensity [4, 10]: 851.5 | 24-Hour Count [4, 11]: 10 cfu/mL | 24-Hour Count % AODC [4, 11]: 0.002 % AODC | 24-Hour Count % control [4, 11]: 0.00005 % control | AODC [4, 11]: 5.03 × 10^5 spores/mL | AODC % control [4, 11]: 21.5 % control | MALS % control [4, 11]: 27.96 % control | MALS intensity [4, 11]: 681.2 | antimicrobial effect (MALS graph, FIG. 3) ([4]; twenty-minute treatment with 0.3 ppm ozone): significant killing effect

[Ag+].[Ag+].[Ag+].[Ag+].[O-2].[O-2].[O-2].[O-2] [tetrasilver tetroxide]
measurable oxidation as measured by the indigo dye method ([2]; without ozone): neither | antimicrobial effect (MALS graph, FIG. 3) ([4]; sixty-minute treatment with 2 ppm tetrasilver tetroxide): little more effective than the untreated control | kills % of E. coli K12 strain [5]: 100%

Source: patent publication US6346201B1, “Ozonated solutions of tetrasilver tetroxide” (priority 2000, dated 2002)
